In the NIST ThermoML archive (doi:10.1016/j.tca.2014.05.029):

Key:
[1] = Molar enthalpy of transition or fusion; settings: Crystal; DSC
[2] = Crystal; DTA
[3] = molar heat capacity at constant pressure; settings: 101.33 kPa, Liquid, Small sample (50 mg) DSC

OC[C@H]1O[C@@](CO)(O[C@H]2O[C@H](CO)[C@@H](O)[C@H](O)[C@H]2O)[C@@H](O)[C@@H]1O [D-sucrose]
Settings	Molar enthalpy of transition or fusion [kcal/mol]	Normal melting temperature [°C]
[1]	7.65	–
[2]	–	151.2

[3]
Settings	molar heat capacity at constant pressure [J/K/mol]
331 K	746.98
340 K	756.97
350 K	768.07
360 K	779.17
370 K	790.27
380 K	801.37
390 K	812.47
400 K	823.57
410 K	834.67
420 K	845.77
424 K	850.21
430 K	856.87
440 K	867.97
450 K	879.07
460 K	890.17
470 K	901.27
480 K	912.37
490 K	923.47
500 K	934.57
510 K	945.67
520 K	956.77
530 K	967.87
540 K	978.97
550 K	990.07
560 K	1001.2
570 K	1012.3
580 K	1023.4
590 K	1034.5
600 K	1045.6
